Test results published in patent US20100022483A1, “Substituted Tetracycline Compounds” (Paratek Pharmaceuticals, Inc., priority 2008, published 2010).
In brackets after ≈: the same amount, converted by molar mass. Where two headings read alike, the source gives them in different places.

Tests used:
CHO-K1 cells = test: in vitro; type: cell-based; details: Chinese hamster, 24 h
gram negative bacteria = test: In vitro anti-bacterial activity assay (broth dilution MIC), gram negative bacteria; type: cell-based, E. coli
Summary of the method: (§1)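 Broth dilution MIC following CLSI M7-A2: compounds serially diluted, log-phase test strains added to final ~5×10^5 CFU/ml, incubated ~18 hours at 35° C in ambient air. Plates read on microplate reader or visually; MIC is lowest concentration inhibiting growth.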

3T3 fibroblast cells = test: In vitro phototoxicity assay (neutral red; UV light-treated vs dark control plates); type: cell-based; details: for Photo Toxicity UV Tox50: UV light 50 minutes; for Photo Toxicity Dark Tox50: dark control plate
Summary of the method: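 Neutral red viability readout (A535 after EtOH/acetic acid extraction) compares paired plates: one exposed 50 min to UV at 1.6–1.8 mW/cm^2, one held in darkness, both dosed with compound in HBSS and recovered overnight. 3T3 fibroblast cells used; phototoxicity taken as the difference.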

gram positive bacteria = test: In vitro anti-bacterial activity assay (broth dilution MIC), gram positive bacteria; type: cell-based, S. aureus; details: for MIC: 18 h
Summary of the method: as §1

[1] = Mammalian cytotoxicity assay (resazurin), COS-1 cells; type: cell-based; details: African green monkey, read-out: Cytotox. COS-1
Summary of the method: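 Cells seeded overnight at 37° C., 5% CO2, then exposed to serial compound dilutions for 24 hours. Medium replaced with resazurin (0.042 mg/ml in PBS with Ca and Mg) for 2 hours plus 30 minutes dark at room temperature; fluorescence read at ex 535/em 590 nm, IC50 taken as 50% growth inhibition.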

in vitro = type: cell-based; details: Chinese hamster, Cytotox. CHO-K1
[2] = Escherichia coli, 18 h, E. coli D1 209, read-out: Median MIC's G− E. coli D1 209
[3] = Escherichia coli, 18 h, E. coli MG 1655, read-out: Median MIC's G− E. coli MG 1655
[4] = Escherichia coli, ATCC25922, 18 h, E. coli ATCC 25922, read-out: Median MIC's G− E. coli ATCC 25922
[5] = Pseudomonas aeruginosa, 18 h, P. aeruginosa K201 PAO6609, read-out: Median MIC's G− P. aeruginosa K201 PAO6609
[6] = Staphylococcus aureus, S. aureus MRSA5, read-out: Median MIC's G+ S. aureus MRSA5
[7] = Staphylococcus aureus, S. aureus RN450, read-out: Median MIC's G+ S. aureus RN450
[8] = Streptococcus pneumoniae, S. pneumoniae 157E-Strep, read-out: Median MIC's G+ S. pneumoniae 157E-Strep

With `CN(C)CCCNC(=O)c1cccc(-c2ccc(O)c3c2C[C@H]2C[C@H]4[C@H](N(C)C)C(O)=C(C(N)=O)C(=O)[C@@]4(O)C(O)=C2C3=O)c1` [J] the IC50 (CHO-K1 cells) was > 40.3 µM, the MIC (gram negative bacteria; [2]) was 64 mg/L (≈ 103 µM) and the MIC (gram negative bacteria; [3]) was 32 mg/L (≈ 51.7 µM). The MIC (gram negative bacteria; [4]) was 32 mg/L (≈ 51.7 µM), the MIC (gram negative bacteria; [5]) was 64 mg/L (≈ 103 µM) and the “Photo Toxicity UV Tox50” value (3T3 fibroblast cells) was >130.13 µM. The “Photo Toxicity Dark Tox50” value (3T3 fibroblast cells) was >130.13 µM, the MIC (gram positive bacteria; [6]) was 64 mg/L (≈ 103 µM) and the MIC (gram positive bacteria; [7]) was 1 mg/L (≈ 1.62 µM). For the same compound, the MIC (gram positive bacteria; [8]) was 1 mg/L (≈ 1.62 µM).
With `CN(C)CCCNC(=O)c1cccc(-c2ccc(O)c3c2C[C@H]2C[C@H]4[C@@H](N(C)C)C(O)=C(C(N)=O)C(=O)[C@@]4(O)C(O)=C2C3=O)c1` [P] the IC50 at 24 h [1] was > 123 µM, the IC50 at 24 h (in vitro) was > 123 µM and the MIC (gram negative bacteria; [2]) was 64 mg/L (≈ 103 µM). For the same compound, the MIC (gram negative bacteria; [3]) was 64 mg/L (≈ 103 µM), the MIC (gram negative bacteria; [4]) was 64 mg/L (≈ 103 µM) and the MIC (gram negative bacteria; [5]) was 64 mg/L (≈ 103 µM). The “Photo Toxicity UV Tox50” value (3T3 fibroblast cells) was >122.9 µM, the “Photo Toxicity Dark Tox50” value (3T3 fibroblast cells) was >122.9 µM and the MIC (gram positive bacteria; [6]) was 64 mg/L (≈ 103 µM). It also gave an MIC (gram positive bacteria; [7]) of 4 mg/L (≈ 6.47 µM) and an MIC (gram positive bacteria; [8]) of 8 mg/L (≈ 12.9 µM).
For `CN(C)CCCNC(=O)c1cccc(-c2ccc(O)c3c2C[C@H]2C[C@H]4[C@H](N(C)C)C(O)=C(C(N)=O)C(=O)[C@@]4(O)C(O)=C2C3=O)c1` [Q], the IC50 (CHO-K1 cells) was > 137 µM, the “Median MIC's G− E. coli ATCC 25922” value (gram negative bacteria; E. coli ATCC 25922) was 64 mg/L and the “Median MIC's G− E. coli D1 209” value (gram negative bacteria; E. coli D1 209) was 64 mg/L. The “Median MIC's G− E. coli MG 1655” value (gram negative bacteria; E. coli MG 1655) was 64 mg/L, the “Median MIC's G− P. aeruginosa K201 PAO6609” value (gram negative bacteria; P. aeruginosa K201 PAO6609) was 64 mg/L and the “Photo Toxicity UV Tox50” value (3T3 fibroblast cells) was >137.36 µM. The “Photo Toxicity Dark Tox50” value (3T3 fibroblast cells) was >137.36 µM, the “Median MIC's G+ S. aureus MRSA5” value (gram positive bacteria; S. aureus MRSA5) was 64 mg/L and the “Median MIC's G+ S. aureus RN450” value (gram positive bacteria; S. aureus RN450) was 2 mg/L. The “Median MIC's G+ S. pneumoniae 157E-Strep” value (gram positive bacteria; S. pneumoniae 157E-Strep) was 1 mg/L.
In the case of `CN(C)CCN(C)C(=O)c1cccc(-c2ccc(O)c3c2C[C@H]2C[C@H]4[C@H](N(C)C)C(O)=C(C(N)=O)C(=O)[C@@]4(O)C(O)=C2C3=O)c1` [R], the IC50 at 24 h [1] is reported as > 137 µM, the IC50 at 24 h (in vitro) is reported as > 137 µM and the MIC (gram negative bacteria; Escherichia coli, 18 h, read-out: Median MIC's G− E. coli D1 209, E. coli D1 209) is reported as 64 mg/L (≈ 103 µM). It also gave an MIC (gram negative bacteria; Escherichia coli, 18 h, read-out: Median MIC's G− E. coli MG 1655, E. coli MG 1655) of 15 mg/L (≈ 24.2 µM), an MIC (gram negative bacteria; Escherichia coli, ATCC25922, 18 h, read-out: Median MIC's G− E. coli ATCC 25922, E. coli ATCC 25922) of 32 mg/L (≈ 51.7 µM) and an MIC (gram negative bacteria; Pseudomonas aeruginosa, 18 h, read-out: Median MIC's G− P. aeruginosa K201 PAO6609, P. aeruginosa K201 PAO6609) of 64 mg/L (≈ 103 µM). The “Photo Toxicity UV Tox50” value (3T3 fibroblast cells) was >137.36 µM, the “Photo Toxicity Dark Tox50” value (3T3 fibroblast cells) was >137.36 µM and the MIC (gram positive bacteria; [6]) was 64 mg/L (≈ 103 µM). It also gave an MIC (gram positive bacteria; [7]) of 0.5 mg/L (≈ 0.808 µM) and an MIC (gram positive bacteria; [8]) of 0.25 mg/L (≈ 0.404 µM).
With `CC(=O)NCCNC(=O)c1cccc(-c2ccc(O)c3c2C[C@H]2C[C@H]4[C@H](N(C)C)C(O)=C(C(N)=O)C(=O)[C@@]4(O)C(O)=C2C3=O)c1` [S] the IC50 at 24 h [1] was > 13 µM, the IC50 at 24 h (in vitro) was > 13 µM and the MIC (gram negative bacteria; [2]) was 64 mg/L (≈ 103 µM). For the same compound, the MIC (gram negative bacteria; [3]) was 64 mg/L (≈ 103 µM), the MIC (gram negative bacteria; [4]) was 64 mg/L (≈ 103 µM) and the MIC (gram negative bacteria; [5]) was 64 mg/L (≈ 103 µM). The “Photo Toxicity UV Tox50” value (3T3 fibroblast cells) was >129.75 µM, the “Photo Toxicity Dark Tox50” value (3T3 fibroblast cells) was >129.75 µM and the MIC (gram positive bacteria; [6]) was 32 mg/L (≈ 51.7 µM). The MIC (gram positive bacteria; [7]) was 2 mg/L (≈ 3.23 µM) and the MIC (gram positive bacteria; [8]) was 2 mg/L (≈ 3.23 µM).
